How the values were obtained:
[1] = test system: hypertriglyceridemia and hypercholesterolemia-induced animals; experiment: HDL cholesterol concentrations in blood of hypertriglyceridemia and hypercholesterolemia-induced animals (Example 2); format: in vivo, New Zealand White rabbits; details: 4 weeks oral once per day, Compound of Formula 1 20 mg/kg/day and/or olmesartan medoxomil 3 mg/kg/day; for average HDL cholesterol concentrations, 4 weeks: n=4-7; for Percent increase of HDL cholesterol level (%): in comparison with the G2 group
Description: (§1) Male New Zealand White rabbits were used as a test animal. All animals, except for the G1 group animals (negative control group), were fed with an irradiation-sterilized hypertriglyceridemia and hypercholesterolemia diet, i.e., DYET #621082 (Purina #5321 chow with 0.5% cholesterol, 14% coconut oil & 2% Maltose Dextrin, Dyets, Inc., Bethlehem, Pa. 18017), which was purchased from Saeronbio Inc. In order to induce hypertriglyceridemia and hypercholesterolemia, the animals were supplied with the diet for more than 4 weeks. After collecting the blood samples from the animals, serum biochemical analyses were performed thereon. Animals showing significant changes in total cholesterol levels and triglyceride levels were selected, in comparison with the non-treated control group. The selected animals were divided into 4 groups on the basis of the total cholesterol levels and triglyceride levels, thereby all the groups having substantially equal average values in the total cholesterol levels and triglyceride levels. The test materials were dissolved in saline containing 0.5% carboxymethylcellulose sodium and 1% Tween 80 and then administered directly into the stomach using an oral syringe adapted with a latex catheter, once per day for 4 weeks. The test groups are as in the following Table 3.
The blood samples were collected through the jugular vein, from the animals at the day initiating the administration of the test material(s) (i.e., at the time of group-dividing, 0 week), and from the animals (which were fasted for 12 to 16 hours before collecting the blood) at 4 weeks after initiating the administration of the test material(s) (n=4-7).

[2] = test system: hypertriglyceridemia and hypercholesterolemia-induced animals; experiment: Triglyceride concentrations in hypertriglyceridemia and hypercholesterolemia-induced animals (Example 2); format: in vivo, New Zealand White rabbits; details: 4 weeks oral once per day, Compound of Formula 1 20 mg/kg/day and/or olmesartan medoxomil 3 mg/kg/day
Description: as §1, with “3. […]” for “3.”

| Compound | average HDL cholesterol concentrations, 4 weeks [1] | Percent increase of HDL cholesterol level (%) [1] | average triglyceride concentrations, 4 weeks ([2]; 0.5% cholesterol, 14% coconut oil diet, n=4-7) | Percent inhibition of triglyceride in the blood (%) ([2]; in comparison with the G2 group) |
| --- | --- | --- | --- | --- |
| COc1cc(F)c(C(C)C)cc1-c1ccc(C(F)(F)F)cc1CN1C(=O)O[C@H](c2cc(C(F)(F)F)cc(C(F)(F)F)c2)[C@@H]1C [Compound of Formula 1, (4S,5R)-5-[3,5-bis(trifluoromethyl)phenyl]-3-({2-[4-fluoro-2-methoxy-5-(propan-2-yl)phenyl]-5-(trifluoromethyl)phenyl}methyl)-4-methyl-1,3-oxazolidin-2-one] | 168.5 mg/dL | 37.9% | – | – |
| CCCc1nc(C(C)(C)O)c(C(=O)OCc2oc(=O)oc2C)n1Cc1ccc(-c2ccccc2-c2nnn[nH]2)cc1 [Olmesartan medoxomil] | 125.3 mg/dL | 2.6% | 217.4 mg/dL | 33.4% |
